From patent US8901138B2, “Sulfoximine substituted quinazolines for pharmaceutical compositions” (Boehringer Ingelheim International GmbH, priority 2012, dated 2014)

Columns and labels:
MNK1a = MNK1a (Homo sapiens, UniProt Q9BUB5); assay: MNK1 in vitro kinase assay (assay 2), Z'-LYTE; assay type: biochemical; details: for inhibition at 1 µM: compound concentration of 1 μM; for IC50: pre-activated GST-MNK1a
Text: B. MNK1 In Vitro Kinase Assay (Assay 2)
MNK1 Data can be obtained from the MNK1 Z′-LYTE® assay. The MNK1 Z′-LYTE® screening protocol and assay conditions are also described on www.invitrogen.com.
The assay is described as follows:
The Z′-LYTE® biochemical assay employs a fluorescence-based, coupled-enzyme format and is based on the differential sensitivity of phosphorylated and non-phosphorylated peptides to proteolytic cleavage. The peptide substrate is labeled with two fluorophores—one at each end—that make up a FRET pair.
In the primary reaction, the kinase transfers the gamma-phosphate of ATP to a single tyrosine, serine or threonine residue in a synthetic FRET-peptide. In the secondary reaction, a site-specific protease recognizes and cleaves non-phosphorylated FRET-peptides. Phosphorylation of FRET-peptides suppresses cleavage by the Development Reagent. Cleavage disrupts FRET between the donor (i.e., coumarin) and acceptor (i.e., fluorescein) fluorophores on the FRET-peptide, whereas uncleaved, phosphorylated FRET-peptides maintain FRET. A ratiometric method, which calculates the ratio (the Emission Ratio) of donor emission to acceptor emission after excitation of the donor fluorophore at 400 nm, is used to quantitate reaction progress, as shown in the equation below. Emission Ratio=Coumarin Emission(445 nm)/Fluorescein Emission(520 nm)
ASSAY SETUP: The inhibition of kinase activity of MNK1a was assessed using pre-activated GST-MNK1a. The 2×MKNK1 (MNK1) mixture is prepared in 50 mM HEPES pH 7.5, 0.01% BRIJ-35, 10 mM MgCl2, 4 mM MnCl2, 1 mM EGTA, 2 mM DTT. The final 10 μL Kinase Reaction consists of 13.5-54 ng MKNK1 (MNK1) and 2 μM Ser/Thr 07 in 50 mM HEPES pH 7.5, 0.01% BRIJ-35, 10 mM MgCl2, 2 mM MnCl2, 1 mM EGTA, 1 mM DTT. After the 1 hour Kinase Reaction incubation, 5 μL of a 1:32768 dilution of Development Reagent A is added.
The Test Compounds are screened in 1% DMSO (final) in the well.
All Peptide/Kinase Mixtures are diluted to a 2× working concentration in the MNK1 Kinase Buffer.
All ATP Solutions are diluted to a 4× working concentration in Kinase Buffer (50 mM HEPES pH 7.5, 0.01% BRIJ-35, 10 mM MgCl2, 1 mM EGTA).
Development Reagent Solution:
The Development Reagent is diluted in Development Buffer
Bar-coded Corning, low volume NBS, 384-well plate (Corning Cat. #3676)
1. 2.5 μL-4× Test Compound
2. 5 μL-2× Peptide/Kinase Mixture
5. 60-minute Kinase Reaction incubation at room temperature
6. 5 μL-Development Reagent Solution
8. 60-minute Development Reaction incubation at room temperature
9. Read on fluorescence plate reader and analyze the data
The following equations are used for each set of data points: […]
Correction for Background Fluorescence: FSample−FITCFl Ctl
Emission Ratio (using values corrected for background fluorescence):Coumarin
Emission (445 nm)/Fluorescein Emission (520 nm)
% Phosphorylation (% Phos): 1−((Emission Ratio×F100%)−C100%)/((C0%−C100%)+[Emission Ratio×(F100%−F0%)])*100 % Inhibition: 1−(% PhosSample/% Phos0% Inhibition Ctl)*100 FI=Fluorescence Intensity C100%=Average Coumarin emission signal of the 100% Phos. Control C0%=Average Coumarin emission signal of the 0% Phos. Control F100%=Average Fluorescein emission signal of the 100% Phos. Control F0%=Average Fluorescein emission signal of the 0% Phos. Control Graphing Software
SelectScreen® Kinase Profiling Service uses XLfit from IDBS. The dose response curve is curve fit to model number 205 (sigmoidal dose-response model).

MNK2a = target: T1, MNK2a (Homo sapiens, UniProt Q9HBH9); assay: MNK2a in vitro kinase assay (assay 1), ADP-Glo; assay type: biochemical; details: preactivated GST-MNK2a, 20 μM ATP, read-out: MNK2 IC50
T1 construct: made in house
Outline: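 Preactivated GST-MNK2a (10 nM) with eIF4E peptide (25 μM) and ATP (20 μM) in HEPES/DTT/MgCl2 buffer, 90 min at room temperature, final DMSO <3%. ADP formed read by ADP-Glo luminescence and normalised to vehicle and 20 μM reference-inhibitor controls; IC50 from dose-response curves.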

MNK1a, sequence (Q9BUB5 1-424 isoform Q9BUB5-2): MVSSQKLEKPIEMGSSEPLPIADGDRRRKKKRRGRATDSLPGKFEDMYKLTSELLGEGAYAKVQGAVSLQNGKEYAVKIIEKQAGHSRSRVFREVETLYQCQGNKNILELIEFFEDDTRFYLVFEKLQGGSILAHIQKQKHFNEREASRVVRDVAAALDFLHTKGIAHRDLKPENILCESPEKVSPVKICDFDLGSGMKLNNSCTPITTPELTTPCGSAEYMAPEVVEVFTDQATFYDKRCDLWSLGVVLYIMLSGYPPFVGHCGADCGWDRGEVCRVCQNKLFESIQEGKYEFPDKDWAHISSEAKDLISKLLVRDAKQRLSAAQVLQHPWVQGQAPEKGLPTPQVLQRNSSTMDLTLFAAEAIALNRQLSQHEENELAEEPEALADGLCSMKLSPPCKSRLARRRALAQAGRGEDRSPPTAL
T1 sequence (Q9HBH9 whole entry): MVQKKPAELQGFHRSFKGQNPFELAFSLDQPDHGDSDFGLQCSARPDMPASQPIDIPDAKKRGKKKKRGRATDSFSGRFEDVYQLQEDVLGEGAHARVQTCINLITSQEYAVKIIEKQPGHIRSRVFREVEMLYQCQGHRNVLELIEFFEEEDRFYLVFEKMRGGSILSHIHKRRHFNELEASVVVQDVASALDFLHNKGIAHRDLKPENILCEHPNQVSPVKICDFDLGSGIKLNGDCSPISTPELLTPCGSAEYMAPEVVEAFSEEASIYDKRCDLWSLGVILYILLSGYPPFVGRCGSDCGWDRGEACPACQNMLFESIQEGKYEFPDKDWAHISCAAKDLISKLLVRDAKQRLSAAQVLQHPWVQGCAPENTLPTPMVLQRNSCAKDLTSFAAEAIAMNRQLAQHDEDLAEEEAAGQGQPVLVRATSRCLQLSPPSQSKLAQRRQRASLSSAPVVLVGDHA

Compound | inhibition at 1 µM (MNK1a) [%] | IC50 (MNK2a) [nM] | IC50 (MNK1a) [nM]
Cc1cc(N=S(C)(C)=O)cc2ncnc(Nc3ccc(F)cc3O[C@@H]3CCCN(C(=O)OC(C)(C)C)C3)c12 [Example 2.27] | 78 | 46 | 
Cc1cc(N=S(C)(C)=O)cc2ncnc(Nc3ccc(F)cc3O[C@@H]3CO[C@H]4[C@@H]3OC[C@H]4C#N)c12 [Example 2.30] | 88 | 7 | 
Cc1cc(N=S(C)(=O)c2ccccn2)cc2ncnc(Nc3ccc(F)cc3O[C@H]3CCOC3)c12 (stereo partly drawn) [Example 2.38] | 82 | 7 | 
COCCS(C)(=O)=Nc1cc(C)c2c(Nc3ccc(F)cc3O[C@@H]3CO[C@H]4[C@@H]3OC[C@H]4O)ncnc2c1 (stereo partly drawn) [Example 2.41] | 90 | 6 | 
CS(C)(=O)=Nc1cc(F)c2c(Nc3cccnc3O[C@@H]3CCOC3)ncnc2c1 [Example 2.53] | 94 | 13 | 
CO[C@H]1CC[C@H](Oc2cc(F)ccc2Nc2ncnc3cc(N=S4(=O)CCOCC4)cc(F)c23)CC1 [Example 2.56] | 76 | 11 | 
Cc1cc(N=S(C)(C)=O)cc2ncnc(Nc3ccsc3O[C@@H]3CCOC3)c12 [Example 2.58] | 30 | 109 | 
Cc1cc(N=S2(=O)CCCC2)cc2ncnc(Nc3ccc(F)cc3O[C@@H]3CCN(C(=O)OC(C)(C)C)C3)c12 [Example 2.59] | 82 | 15 | 
Cc1cc(N=S(C)(C)=O)cc2ncnc(Nc3ccc(C#N)cc3O[C@H]3CC[C@H](O)CC3)c12 [Example 2.65] | 98 | 5 | 
Cc1cc(N=S2(=O)CCCC2)cc2ncnc(Nc3ccc(F)cc3O[C@@H]3CCCN(C(=O)OC(C)(C)C)C3)c12 [Example 2.66] | 88 | 16 | 
Cc1cc(N=[S@](C)(=O)c2ccccc2)cc2ncnc(Nc3ccc(F)cc3O[C@H]3CCOC3)c12 [Example 2.72] | 71 | 30 | 
CO[C@@H]1CO[C@H]2[C@@H]1OC[C@H]2Oc1cc(F)ccc1Nc1ncnc2cc(N=S(C)(C)=O)cc(F)c12 [Example 2.76] | 100 | 5 | 57
CC(C)(C)OC(=O)N1CCC[C@@H](Oc2ncccc2Nc2ncnc3cc(N=S(C)(C)=O)cc(F)c23)C1 [Example 2.77] | 55 | 164 | 
Cc1cc(N=S(C)(C)=O)cc2ncnc(Nc3ccc(F)cc3O[C@H]3CO[C@H]4[C@@H]3OC[C@@H]4O)c12 [Example 2.80] | 73 | 19 | 
COCCS(C)(=O)=Nc1cc(C)c2c(Nc3ccc(F)cc3O[C@H]3CC[C@H](OC)CC3)ncnc2c1 (stereo partly drawn) [Example 2.87] | 79 | 7 | 
Cc1cc(N=S2(=O)CCCC2)cc2ncnc(Nc3cccnc3OC3COCCOC3)c12 [Example 2.88] | 95 | 5 | 
Cc1cc(N=S(C)(C)=O)cc2ncnc(Nc3cccnc3OC3COCCOC3)c12 [Example 2.91] | 93 | 7 | 
CCS(=O)(CC)=Nc1cc(C)c2c(Nc3ccc(F)cc3O[C@H]3CCOC3)ncnc2c1 [Example 2.92] | 83 | 13 | 

The next lines start with the values.

inhibition at 1 µM (MNK1a) [%] | IC50 (MNK2a) [nM] | IC50 (MNK1a) [nM] | Compound
93 | 4 |  | Cc1cc(N=S(C)(C)=O)cc2ncnc(Nc3ccc(C(N)=O)cc3OC3CCCC3)c12 [Example 2.24]
98 | 4 |  | Cc1cc(N=S(C)(C)=O)cc2ncnc(Nc3ccc(F)cc3O[C@@H]3CO[C@H]4[C@@H]3OC[C@H]4OC(C)C)c12 [Example 2.28]
100 | 2 |  | Cc1cc(N=S(C)(C)=O)cc2ncnc(Nc3cccnc3O[C@H]3CC[C@H](O)CC3)c12 [Example 2.31]
100 | 3 |  | CCS(C)(=O)=Nc1cc(C)c2c(Nc3ccc(F)cc3O[C@@H]3CO[C@H]4[C@@H]3OC[C@H]4O)ncnc2c1 (stereo partly drawn) [Example 2.33]
 | 1 | 17 | CO[C@@H]1CO[C@H]2[C@@H]1OC[C@H]2Oc1cc(F)ccc1Nc1ncnc2cc(N=S(C)(C)=O)cc(C)c12 [Example 2.34]
95 | 4 |  | CS(C)(=O)=Nc1cc(F)c2c(Nc3ccc(F)cc3O[C@H]3CC[C@@](C)(O)CC3)ncnc2c1 [Example 2.35]
95 | 1 |  | CCO[C@@H]1CO[C@H]2[C@@H]1OC[C@H]2Oc1cc(F)ccc1Nc1ncnc2cc(N=S3(=O)CCCC3)cc(C)c12 [Example 2.37]
100 | 2 | 56 | Cc1cc(N=S2(=O)CCCC2)cc2ncnc(Nc3ccc(F)cc3O[C@H]3CC[C@H](O)CC3)c12 [Example 2.40]
100 | 3 |  | CCS(C)(=O)=Nc1cc(C)c2c(Nc3cccnc3O[C@H]3CC[C@H](O)CC3)ncnc2c1 (stereo partly drawn) [Example 2.44]
90 | 2 |  | Cc1cc(N=S(C)(C)=O)cc2ncnc(Nc3ccc(F)cc3O[C@@H]3CO[C@H]4[C@@H]3OC[C@@]4(C)O)c12 [Example 2.45]
97 | 2 |  | Cc1cc(N=S(C)(C)=O)cc2ncnc(Nc3ccc(F)cc3O[C@H]3CCOC3)c12 [Example 2.47]
86 | 4 |  | CO[C@H]1CC[C@H](Oc2ncccc2Nc2ncnc3cc(N=S(C)(C)=O)cc(F)c23)CC1 [Example 2.49]
101 | 3 |  | Cc1cc(N=S2(=O)CCCCC2)cc2ncnc(Nc3ccc(F)cc3O[C@@H]3CO[C@H]4[C@@H]3OC[C@H]4O)c12 [Example 2.51]
69 | 5 |  | Cc1cc(N=S(C)(=O)CCc2ccccc2)cc2ncnc(Nc3ccc(F)cc3O[C@H]3CC[C@H](O)CC3)c12 (stereo partly drawn) [Example 2.54]
99 | 2 |  | CCS(C)(=O)=Nc1cc(C)c2c(Nc3ccc(F)cc3O[C@@H]3CO[C@H]4[C@@H]3OC[C@H]4OC)ncnc2c1 (stereo partly drawn) [Example 2.55]
98 | 2 |  | Cc1cc(N=S(C)(C)=O)cc2ncnc(Nc3ccc(F)cc3O[C@@H]3CO[C@H]4[C@@H]3OC[C@@H]4C#N)c12 [Example 2.61]
87 | 3 |  | Cc1cc(N=[S@@](C)(=O)c2ccccc2)cc2ncnc(Nc3ccc(F)cc3O[C@H]3CCOC3)c12 [Example 2.64]
85 | 3 |  | CO[C@@H]1CCCC[C@H]1Oc1cc(F)ccc1Nc1ncnc2cc(N=S(C)(C)=O)cc(C)c12 [Example 2.67]
100 | 3 | 75 | CO[C@H]1CC[C@H](Oc2cc(F)ccc2Nc2ncnc3cc(N=S(C)(C)=O)cc(C)c23)CC1 [Example 2.75]
92 | 4 |  | CCS(C)(=O)=Nc1cc(C)c2c(Nc3ccc(F)cc3O[C@H]3CC[C@H](OC)CC3)ncnc2c1 (stereo partly drawn) [Example 2.81]
91 | 2 |  | CO[C@H]1CC[C@H](Oc2cc(F)ccc2Nc2ncnc3cc(N=S4(=O)CCCCC4)cc(C)c23)CC1 [Example 2.84]
